Results on five molecules are retold here after patent US8501238B2, “Anti-infective agents and uses thereof” (priority 2007, dated 2013).

In data set [1] the test system is genotype 1b-Con1 subgenomic replicon cell line. The data set can be described thus: microbe, parasite or virus in culture. The class given is cell-based, HCV. Conditions: Hepatitis C virus, 72 h, read-out: EC50 1b.
Data set [2] addresses T1, HCV polymerase 1B (Δ21 NS5B) (Hepatitis C virus genotype 1b, UniProt P26663).
T1 construct: 20 to 50nM Δ21 NS5B
The data set can be described thus: biochemical. In a few lines:
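Inhibitor pre-incubated 15 min at room temperature with Δ21 NS5B (strain BK or H77, 20–50 nM), 60–125 μM GTP, 2 mM MnCl2, pH 7.4. Reaction started with 20 μM CTP, 20 μM ATP, 1 μM 3H-UTP and 5 nM template RNA, run 2–4 h at room temperature. Spermine-precipitated RNA filter-captured and scintillation-counted; IC50 from tight-binding equation fit.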

Data set [3] concerns the target T2, HCV polymerase 1A (Δ21 NS5B) (Hepatitis C virus genotype 1a, UniProt P27958).
T2 construct: 20 to 50nM Δ21 NS5B
Briefly: HCV Polymerase Inhibition Assay (1a). The class given is biochemical. In a few lines:
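Δ21 NS5B reactions contained 20 μM CTP, 20 μM ATP, 1 μM ³H-UTP and 5 nM template RNA and ran for 2–4 h at room temperature. RNA was then spermine-precipitated, filter-captured and counted by scintillation. IC50 came from a tight-binding (Morrison) nonlinear fit of retained cpm against inhibitor concentration.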

For data set [4], the system named is genotype 1a-H77 subgenomic replicon cell line. Briefly: microbe, parasite or virus in culture. Type of data set: cell-based, HCV. Conditions: Hepatitis C virus, 72 h, read-out: EC50 1a.

T1 sequence (P26663 2420-2989, stated change not applied): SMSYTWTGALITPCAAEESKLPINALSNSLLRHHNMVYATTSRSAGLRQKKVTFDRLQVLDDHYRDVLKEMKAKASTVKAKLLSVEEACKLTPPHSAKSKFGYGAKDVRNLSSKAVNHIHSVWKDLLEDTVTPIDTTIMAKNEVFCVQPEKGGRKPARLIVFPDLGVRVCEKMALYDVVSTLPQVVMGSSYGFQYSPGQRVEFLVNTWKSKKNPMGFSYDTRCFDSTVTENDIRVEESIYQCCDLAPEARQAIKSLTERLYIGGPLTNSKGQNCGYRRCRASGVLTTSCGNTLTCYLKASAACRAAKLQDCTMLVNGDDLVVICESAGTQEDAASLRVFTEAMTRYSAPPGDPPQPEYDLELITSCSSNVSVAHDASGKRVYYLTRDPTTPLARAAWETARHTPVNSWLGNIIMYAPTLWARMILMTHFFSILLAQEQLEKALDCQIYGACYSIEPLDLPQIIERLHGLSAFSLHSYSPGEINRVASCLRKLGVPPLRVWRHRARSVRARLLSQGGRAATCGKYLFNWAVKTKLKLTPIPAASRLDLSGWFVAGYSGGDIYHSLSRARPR
T2 sequence (P27958 2421-2990, stated change not applied): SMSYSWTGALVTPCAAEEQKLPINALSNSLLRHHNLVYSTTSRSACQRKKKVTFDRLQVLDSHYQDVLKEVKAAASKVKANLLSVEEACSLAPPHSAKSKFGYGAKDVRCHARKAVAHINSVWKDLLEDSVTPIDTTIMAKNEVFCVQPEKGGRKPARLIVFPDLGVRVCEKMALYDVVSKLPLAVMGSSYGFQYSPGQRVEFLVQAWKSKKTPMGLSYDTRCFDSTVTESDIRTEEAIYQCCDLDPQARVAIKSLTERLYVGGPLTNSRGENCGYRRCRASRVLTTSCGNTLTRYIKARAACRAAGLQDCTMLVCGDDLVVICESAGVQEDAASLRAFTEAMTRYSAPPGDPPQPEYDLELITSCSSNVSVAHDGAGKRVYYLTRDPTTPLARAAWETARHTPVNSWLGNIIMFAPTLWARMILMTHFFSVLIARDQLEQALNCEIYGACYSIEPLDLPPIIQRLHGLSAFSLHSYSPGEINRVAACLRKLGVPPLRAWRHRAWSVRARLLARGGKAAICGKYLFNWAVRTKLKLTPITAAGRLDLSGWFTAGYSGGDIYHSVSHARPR

Take `CC(C)(C)c1cc(-n2ccc(=O)[nH]c2=O)cc(-c2ccc3cc(NS(C)(=O)=O)ccc3c2)c1Cl` [IB-L0-2.14, N-(6-(3-tert-butyl-2-chloro-5-(2,4-dioxo-3,4-dihydropyrimidin-1(2H)-yl)phenyl)naphthalen-2-yl)methanesulfonamide]: the melting point is more than 280 °C. Further, the EC50 in data set [1] was in the range of 10 to 100 nM. In data set [2], this molecule had an IC50 of less than 10 nM. In data set [3], this molecule registered an IC50 of less than 10 nM. Also, in data set [4], the EC50 was 100 to 1000 nM.
`CCOc1c(-c2ccc3cc(NS(C)(=O)=O)ccc3c2)cc(-n2ccc(=O)[nH]c2=O)cc1C(C)(C)C` [IB-L0-2.23, N-(6-(3-tert-butyl-5-(2,4-dioxo-3,4-dihydropyrimidin-1(2H)-yl)-2-ethoxyphenyl)naphthalen-2-yl)methanesulfonamide] came in with a melting point of 196 to 202 °C. Moreover, the EC50 in data set [1] lay in the range of 10 to 100 nM. Further, the IC50 in data set [2] is less than 10 nM. Further, the IC50 in data set [3] lay within 10 to 100 nM. The EC50 in data set [4] fell in the range of 100 to 1000 nM.
`COc1c(-c2ccc3cc(NS(C)(=O)=O)ccc3c2)cc(-n2ccc(=O)[nH]c2=O)cc1C(C)(C)CO` [IB-L0-2.54, N-(6-(5-(2,4-dioxo-3,4-dihydropyrimidin-1(2H)-yl)-3-(1-hydroxy-2-methylpropan-2-yl)-2-methoxyphenyl)naphthalen-2-yl)methanesulfonamide] returned a melting point of 256 to 257 °C. In data set [1], the EC50 was 10 to 100 nM. In data set [2], this molecule gave an IC50 of 10 to 100 nM. In addition, the IC50 in data set [3] was less than 10 nM. In addition, in data set [4], the EC50 was 10 to 100 nM.
The molecule `COc1c(-c2ccc3cc(NS(C)(=O)=O)ccc3c2)cc(-n2ccc(=O)[nH]c2=O)cc1-c1ccc(C)o1` [IB-L0-2.58, N-(6-(5-(2,4-dioxo-3,4-dihydropyrimidin-1(2H)-yl)-2-methoxy-3-(5-methylfuran-2-yl)phenyl)naphthalen-2-yl)methanesulfonamide] came in with a melting point of 174 to 178 °C. Also, the EC50 in data set [1] is less than 10 nM. In data set [2], this molecule had a half-maximal inhibitory concentration (IC50) of 10 to 100 nM. The IC50 in data set [3] was less than 10 nM. In data set [4], the EC50 is 10 to 100 nM.
The molecule `COc1c(-c2ccc3cc(NS(C)(=O)=O)ccc3c2)cc(-n2ccc(=O)[nH]c2=O)cc1C(F)(F)C(F)(F)F` [IB-L0-2.60, N-(6-(5-(2,4-dioxo-3,4-dihydropyrimidin-1(2H)-yl)-2-methoxy-3-(perfluoroethyl)phenyl)naphthalen-2-yl)methanesulfonamide] yielded a melting point of 162 to 165 °C. For the same molecule, the EC50 in data set [1] was in the range of 10 to 100 nM. The molecule also showed an IC50 in data set [2] of 10 to 100 nM. Moreover, in data set [3], the IC50 was less than 10 nM. The EC50 in data set [4] was in the range of 100 to 1000 nM.
